Results published in patent US6723702B2, “Use of relaxin treat diseases related to vasoconstriction” (RAS Medical, Inc., priority 2000, dated 2004).

What was measured:
conscious rats = test: Acute infusion of L-NAME during chronic infusion of purified porcine RLX; assay type: in vivo, rat
Procedure: At least 7 days after the implantation of vascular and bladder catheters, osmotic minipumps containing either porcine RLX (4 μg/hour) or vehicle (Ringer's solution) were implanted in intact, female rats (n=7 and 6 rats, respectively). Renal function and MAP were measured on day 5 of relaxin infusion (three 30-minute urine and midpoint blood collections). Next, an infusion of L-NAME (2 μg/minute, a substrate competitive inhibitor of NO synthase) was administered intravenously (i.v.) by infusion pump (Model 200, KD Scientific, Boston, Mass.). Four 1-hour urine collections with midpoint blood samples were collected for the assessment of GFR, ERPF, and ERVR during the L-NAME administration. Identical procedures were performed on additional animals chronically administered porcine RLX (n=5) or vehicle (n=5), except that ANG II (3 ng/minute) was infused rather than L-NAME. Finally, another four, age-matched control rats were administered Ringer's solution instead of either L-NAME or ANG II on day 5 of porcine RLX infusion.
MAP, GFR, ERPF, and ERVR were measured at time zero (baseline), and at 60, 120, 180, and 240 minutes after administering L-NAME and either RLX or vehicle alone. Values represent the mean±SEM. L-NAME (Nω-nitro-L-arginine methyl ester) was infused at 2 μg/minute intravenously, and relaxin was administered at 4 μg/hour by osmotic minipump subcutaneously. There were 7 and 6 rats, respectively, in the RLX and vehicle groups. An asterisk denotes p<0.05; the symbol H denotes p<0.05 for RLX vs. vehicle.

db/db mice = test: Full thickness wound healing in db/db mice; assay type: in vivo, mouse; conditions: PDGF 5 μg/wound/day for 5 days
Procedure: To determine whether rhRlx would improve healing in this model of impaired healing, standardized full thickness (1.5 cm×1.5 cm) wounds were made on the back of db/db mice (Jackson Laboratories, Bar Harbor, Me.). Mice were treated continuously for 21 days with rhRlx via a subcutaneously implanted Alzet pump at a dose of either 0.1 mg/kg/day or 0.2 mg/kg/day. Wound areas were measured in the course of the study. Healing is presented as wound area on day 14 relative to the original size of the wound on day 0 and is calculated as: % of original wound area=[Area on day 14/area on day 0]×100. […] Wound closure was expressed as “% of original wound area.” There were 8-20 animals per group. Wound closure was 91.4% in control group vs. 64% in the relaxin-treated group (p<0.05 by Student-Newman-Kuels test). The differences in the extent of wound healing were small among vehicle control and low dose of rhRlx treatment as well as PDGF (5 μg/wound/day for 5 days) treated mice.
At day 21-post surgery, the wounds were also excised and fixed in formalin prior to paraffin embedding. Sections from the middle of the wound were stained with Masson's trichrome and evaluated by two investigators. […] Inflammatory cell accumulation was present at the wound edges.
Neovascularization is a key component of granulation tissue formation. New blood vessel formation is stimulated by a variety of growth factors including bFGF, and VEGF. […] Immunohistochemical staining of the midsection of full thickness wounds using polyclonal antibody to von Willebrand factor VIII-related antigen was used to identify new blood vessels in the wounds.

[1] = test system: Rat aortic adventitial fibroblasts; test: Collagen and fibronectin expression by adventitial fibroblasts; assay type: cell-based
Procedure: Aortic adventitial fibroblasts from normal adult Sprague/Dawley rats were explanted by carefully dissecting the adventitia away from the media and culturing 1 mm^3 pieces in Dulbecco's modified Eagles Medium (DMEM), plus 10% bovine fetal calf serum. When cultures were confluent, fibroblasts were dispersed with trypsin and passaged once prior to use in experiments. Fibroblasts were seeded at 10^5 cells/cm^2 in DMEM+10% FBS in 48-well plates for experiments and assayed for collagen and fibronectin expression, as previously described (Unemori et al. (1996) J. Clin. Invest. 98:2739-2745). […] Half of the cultures were also treated simultaneously with 10 ng/ml of rhRlx. Proteins were biosynthetically labeled with ^3H-proline (25 μCi/ml) (Amersham Corp., Arlington Heights, Ill.), in the presence of ascorbate (50 μg/ml) and β-aminopropionitrile (80 μg/ml), and conditioned media collected 24 hours later. Media were electrophoresed on SDS-PAGE, and the density of collagen and fibronectin bands was determined by densitometric scanning using a digital imaging system (Alpha Innotech Corp, San Leandro, Calif.).

**Q.** With `COC(=O)[C@@H](N)CCCNC(=N)N[N+](=O)[O-]` [L-NAME, Nω-nitro-L-arginine methyl ester, reference compound] as the molecule, how does the “renal vasodilation and hyperfiltration in the relaxin-treated rats” value (conscious rats; day 5 of porcine RLX infusion, L-NAME 2 μg/minute i.v.) read?
**A.** completely abrogated

**Q.** What about the “rise in MAP and ERVR, and reduction in GFR and ERPF” value (conscious rats; relaxin-treated compared to vehicle infused rats) of the same molecule?
**A.** significantly greater

**Q.** With PDGF [reference compound] as the molecule, how does the “differences in the extent of wound healing vs vehicle control” value (db/db mice) read?
**A.** small

**Q.** With TGF-β [reference compound] as the molecule, how does the “expression of collagens, of control levels” value ([1]; TGF-β (20 ng/ml)) read?
**A.** 484±67%

**Q.** What about the “Fibronectin expression, of control levels” value ([1]; TGF-β treatment) of the same molecule?
**A.** 360±5%
